Test results published in article PMC13483160, “Reorganization of Innate Immune Cell Lipid Profiles by Bioinspired Meroterpenoids to Limit Inflammation” (Advanced Science, 2026).

Molecular target: T1, 5-lipoxygenase (ALOX5) (Homo sapiens, UniProt P09917)
T1 sequence (P09917 1-674): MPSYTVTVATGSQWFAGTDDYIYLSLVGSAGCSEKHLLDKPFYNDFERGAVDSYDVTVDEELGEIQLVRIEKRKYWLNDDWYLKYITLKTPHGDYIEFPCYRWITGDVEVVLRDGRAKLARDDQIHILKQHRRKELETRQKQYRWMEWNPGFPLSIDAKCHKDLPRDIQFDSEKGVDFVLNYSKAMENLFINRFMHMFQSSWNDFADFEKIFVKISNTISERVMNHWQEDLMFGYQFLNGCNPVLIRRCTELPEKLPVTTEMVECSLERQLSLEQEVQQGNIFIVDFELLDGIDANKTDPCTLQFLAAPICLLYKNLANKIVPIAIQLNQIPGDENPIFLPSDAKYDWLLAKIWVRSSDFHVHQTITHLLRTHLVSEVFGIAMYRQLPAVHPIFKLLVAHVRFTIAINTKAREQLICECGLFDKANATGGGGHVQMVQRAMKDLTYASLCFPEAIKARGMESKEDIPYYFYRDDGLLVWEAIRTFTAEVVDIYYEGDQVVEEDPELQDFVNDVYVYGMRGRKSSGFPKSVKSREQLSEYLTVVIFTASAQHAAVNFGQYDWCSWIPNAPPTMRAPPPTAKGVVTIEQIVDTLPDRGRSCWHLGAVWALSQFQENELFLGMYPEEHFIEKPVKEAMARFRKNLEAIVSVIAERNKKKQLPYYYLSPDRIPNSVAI
Test: enzyme kinetics of human recombinant ALOX5 at varying AA ([…])
Assay type: biochemical

For `CCCCC/C=C\C/C=C\C/C=C\C/C=C\CCCC(=O)O` [AA/20:4, 5Z,8Z,11Z,14Z‐eicosatetraenoic acid], the “enzyme kinetics of human recombinant ALOX5 at varying AA (3-300 μM)” value was “Lineweaver–Burk plot generated from activity data of human recombinant ALOX5”.
